Source: patent publication US8252273B2, “Ultraviolet absorber” (Lead Chemical Co., Ltd., priority 2007, dated 2012)
Values belong to the compound of their own block, whether it stands above or below them.

Experiments:
[1] = Test Example 3: ultraviolet irradiation test (absorption spectra for different irradiation times); format: physicochemical; settings: conclusion for the compounds
Source text: Ointments (samples B, C, D and E) prepared in Test Example 1 were interposed between two pieces of synthetic quartz plates to prepare measurement samples.
From a light radiated from a 500 W ultra-high pressure mercury vapor lamp (trade name: USH-500D; manufactured by Ushio Inc.), the visible light was removed through a water filter of 5 cm and an ultraviolet transmitting and visible light-absorbing filter (trade name: UV-D33S; manufactured by AGC Techno Glass Co., Ltd.). Then, each measurement sample was irradiated with ultraviolet rays mostly in the UVA and the UVB ranges. Ultraviolet rays irradiation time was set at 0, 5, 10, 15, 20, 25 and 30 minutes. The results of the test are shown in the ultraviolet absorption spectra of FIG. 4 to FIG. 7.

[2] = Test Example 2: solubility test in organic solvents; format: physicochemical; settings: for Amount of solvent required to dissolve 100 mg of sample / Concentration on dissolving 100 mg of sample: room temperature (23 to 25° C.)
Description: Sample a: the O-tolyl-4-methoxycinnamate compound synthesized in Example 1
Sample b: the Compound of Reference Example 2
The amounts of various organic solvents capable of dissolving 100 mg of each sample at room temperature (23 to 25° C.) were measured. For dissolving the sample, a 50 mL polypropylene conical tube (manufactured by CORNING Inc.) was used, and dissolution was carried out by stirring with a shaker (trade name: Vortex G-56; manufactured by Scientific Ind. Inc.) for 1 minute.

- Ultraviolet absorptive capacity (absorption strength) under ultraviolet irradiation in the UVA and the UVB ranges [1]: increases further
- melting point: 108 to 109 °C
Compound: CCOc1ccc(/C=C/C(=O)Oc2ccccc2C)cc1 [Example 2, O-tolyl-4-ethoxycinnamate]

Compound: COc1ccc(C(=O)CC(=O)c2ccc(C(C)(C)C)cc2)cc1 [Reference Example 2, 4-tert-butyl-4′-methoxy-dibenzoylmethane, reference compound]
- Ultraviolet absorptive capacity (absorption strength) under ultraviolet irradiation in the UVA and the UVB ranges [1]: decreases or remains the same

- Amount of solvent required to dissolve 100 mg of sample ([2]; Acetone): < 1 mL
- Concentration on dissolving 100 mg of sample ([2]; Acetone): (>10)
- Amount of solvent required to dissolve 100 mg of sample ([2]; Ethanol): 10 mL
- Concentration on dissolving 100 mg of sample ([2]; Ethanol): (1)
- Amount of solvent required to dissolve 100 mg of sample ([2]; Ether): 3 mL
- Concentration on dissolving 100 mg of sample ([2]; Ether): (3.3)
- Amount of solvent required to dissolve 100 mg of sample ([2]; Ethyl acetate): < 1 mL
- Concentration on dissolving 100 mg of sample ([2]; Ethyl acetate): (>10)
- Amount of solvent required to dissolve 100 mg of sample ([2]; Isopropyl alcohol): 15 mL
- Concentration on dissolving 100 mg of sample ([2]; Isopropyl alcohol): (0.67)
- Amount of solvent required to dissolve 100 mg of sample ([2]; Methanol): 7.5 mL
- Concentration on dissolving 100 mg of sample ([2]; Methanol): (1.3)
- Amount of solvent required to dissolve 100 mg of sample ([2]; N-methylpyrrolidone): < 1 mL
- Concentration on dissolving 100 mg of sample ([2]; N-methylpyrrolidone): (>10)
- Ultraviolet absorptive capacity (absorption strength) under ultraviolet irradiation in the UVA and the UVB ranges [1]: increases further
- melting point: 93 to 94 °C
Compound: COc1ccc(/C=C/C(=O)Oc2ccccc2C)cc1 [Example 1, O-tolyl-4-methoxycinnamate]
- Solubility in organic solvents compared with Reference Example 2 ([2]; almost all the organic solvents tested): better solubility than that of the compound of Reference Example 2

- Ultraviolet absorptive capacity (absorption strength) under ultraviolet irradiation in the UVA and the UVB ranges [1]: decreases or remains the same
Compound: CCCCC(CC)COC(=O)C=Cc1ccc(OC)cc1 (stereo not drawn) [Reference Example 1, 4-methoxycinnamic acid-2-ethylhexyl, reference compound]
